How the values were obtained:
[1] = Drug uptake in ICR mouse plasma at 1 mg/kg, iv measured for 5 to 480 mins by LC-MS/MS analysis; type: ADME, organism-based; settings: in vivo, time 5-480 min
MV4-11 [2] = assay: Induction of apoptosis in human MV4-11 cells incubated for 72 hrs by Annexin V-FITC/PI staining based flow cytometry; type: functional, cell-based; settings: dose 0.25-10 µM
[3] = Cmax in ICR mouse at 10 mg/kg, po measured for 5 to 480 mins by LC-MS/MS analysis; type: ADME, organism-based; settings: in vivo, time 5-480 min
[4] = Oral bioavailability in ICR mouse at 10 mg/kg measured for 5 to 480 mins by LC-MS/MS analysis; type: ADME, organism-based; settings: in vivo, time 5-480 min
[5] = AUC (0 to infinity) in ICR mouse at 10 mg/kg, po measured for 5 to 480 mins by LC-MS/MS analysis; type: ADME, organism-based; settings: in vivo, time 5-480 min
[6] = Metabolic stability in human liver microsomes assessed as half life preincubated for 5 mins followed by NADPH addition measured for 5 to 90 mins by LC-MS/MS analysis; type: ADME, Microsome; settings: time 10-95 min
[7] = AUC (0 to infinity) in ICR mouse at 1 mg/kg, iv measured for 5 to 480 mins by LC-MS/MS analysis; type: ADME, organism-based; settings: in vivo, time 5-480 min
[8] = Half life in ICR mouse at 10 mg/kg, po measured for 5 to 480 mins by LC-MS/MS analysis; type: ADME, organism-based; settings: in vivo, time 5-480 min
[9] = Blood concentration elimination rate constant for the terminal phase in ICR mouse at 10 mg/kg, po measured for 5 to 480 mins by LC-MS/MS analysis; type: ADME, organism-based; settings: time 5-480 min, read-out: LambdaZ (converted)
[10] = Tmax in ICR mouse at 1 mg/kg, iv measured for 5 to 480 mins by LC-MS/MS analysis; type: ADME, organism-based; settings: in vivo, time 5-480 min
[11] = Cmax in ICR mouse at 1 mg/kg, iv measured for 5 to 480 mins by LC-MS/MS analysis; type: ADME, organism-based; settings: in vivo, time 5-480 min
MV4-11 [12] = assay: Induction of apoptosis in human MV4-11 cells at 0.25 to 10 uM incubated for 72 hrs by Annexin V-FITC/PI staining based flow cytometry (reference value: 43.2 %); type: functional; settings: dose 0.25-10 µM
MV4-11 [13] = assay: Antiproliferative activity against human MV4-11 cells
[14] = Clearance in ICR mouse at 1 mg/kg, iv measured for 5 to 480 mins by LC-MS/MS analysis; type: ADME, organism-based; settings: in vivo, time 5-480 min
[15] = Volume of distribution at steady state in ICR mouse at 1 mg/kg, iv measured for 5 to 480 mins by LC-MS/MS analysis; type: ADME, organism-based; settings: in vivo, time 5-480 min
[16] = AUC (0 to t) in ICR mouse at 1 mg/kg, iv measured for 5 to 480 mins by LC-MS/MS analysis; type: ADME, organism-based; settings: in vivo, time 5-480 min
[17] = Tmax in ICR mouse at 10 mg/kg, po measured for 5 to 480 mins by LC-MS/MS analysis; type: ADME, organism-based; settings: in vivo, time 5-480 min
[18] = MRT in ICR mouse at 1 mg/kg, iv measured for 5 to 480 mins by LC-MS/MS analysis; type: ADME, organism-based; settings: in vivo, time 5-480 min
[19] = Metabolic stability in human liver microsomes assessed as clearance preincubated for 5 mins followed by NADPH addition measured for 5 to 90 mins by LC-MS/MS analysis; type: ADME, Microsome; settings: time 10-95 min, read-out: CLH
[20] = MRT in ICR mouse at 10 mg/kg, po measured for 5 to 480 mins by LC-MS/MS analysis; type: ADME, organism-based; settings: in vivo, time 5-480 min
[21] = Blood concentration elimination rate constant for the terminal phase in ICR mouse at 1 mg/kg, iv measured for 5 to 480 mins by LC-MS/MS analysis; type: ADME, organism-based; settings: time 5-480 min, read-out: LambdaZ (converted)
[22] = Clearance in ICR mouse at 10 mg/kg, po measured for 5 to 480 mins by LC-MS/MS analysis; type: ADME, organism-based; settings: in vivo, time 5-480 min
[23] = Drug uptake in ICR mouse plasma at 10 mg/kg, po measured for 5 to 480 mins by LC-MS/MS analysis; type: ADME, organism-based; settings: in vivo, time 5-480 min
[24] = Half life in ICR mouse at 1 mg/kg, iv measured for 5 to 480 mins by LC-MS/MS analysis; type: ADME, organism-based; settings: in vivo, time 5-480 min
[25] = AUC (0 to t) in ICR mouse at 10 mg/kg, po measured for 5 to 480 mins by LC-MS/MS analysis; type: ADME, organism-based; settings: in vivo, time 5-480 min
HL-60 = assay: Antiproliferative activity against human HL-60 cells; type: functional, cell-based
HCT-116 = assay: Antiproliferative activity against human HCT-116 cells; type: functional, cell-based

CCc1nnc2ccc(-c3nc4cnc(-c5cnn(C)c5)cn4c3Nc3ccc(F)cc3Br)cn12
Drug uptake [1]: Active
Activity (MV4-11 [2]): Dose-dependent-effect; Activity Was Better Than (+)-Jq1
Cmax [3]: 5480 ng/mL
bioavailability [4]: 44.8%
AUC(0-inf) [5]: 20900 ng·h/mL
half-life [6]: 38.6 h
AUC(0-inf) [7]: 4660 ng·h/mL
half-life [8]: 2.26 h
k el [9]: 9.72e-05 s⁻¹
Tmax [10]: 4.8 min
Cmax [11]: 4410 ng/mL
Activity (MV4-11 [12]): 83.2%
IC50 (MV4-11 [13]): 20 nM
CL [14]: 2 10^-4(mg/kg)/(ng/ml)/hr
Vdss [15]: 3 10^-4(mg/kg)/(ng/ml)
AUC(0-t) [16]: 4640 ng·h/mL
Tmax [17]: 0.5 h
MRT [18]: 1.32 h
microsomal CLint [19]: 0.3 µL/min/mg
MRT [20]: 3.9 h
k el [21]: 0.000181 s⁻¹
CL [22]: 0.001 (mg/kg)/(ng/ml)/hr
Drug uptake [23]: Active
half-life [24]: 1.06 h
AUC(0-t) [25]: 18300 ng·h/mL

Cc1sc2c(c1C)C(c1ccc(Cl)cc1)=N[C@@H](CC(=O)OC(C)(C)C)c1nnc(C)n1-2
Activity (MV4-11 [2]): Dose-dependent-effect
IC50 (HL-60): 3150 nM
IC50 (MV4-11 [13]): 30 nM
IC50 (HCT-116): 2700 nM

CCc1nnc2ccc(-c3nc4cnc(N5CCN(C)CC5)cn4c3Nc3ccc(F)c(Cl)c3)cn12
IC50 (MV4-11 [13]): 740 nM

Cc1nnc2ccc(-c3nc4cnc(-c5cnn(C)c5)cn4c3Nc3ccc(F)cc3)cn12
IC50 (HL-60): 8250 nM
IC50 (MV4-11 [13]): 4900 nM

Cc1nnc2ccc(-c3nc4cnc(N5CCOCC5)cn4c3Nc3ccc(C(F)(F)F)cc3)cn12
half-life [6]: 2.56 h
IC50 (MV4-11 [13]): 290 nM
microsomal CLint [19]: 4.52 µL/min/mg

COc1ccc(Nc2c(-c3ccc4nnc(C)n4c3)nc3cnc(N4CCOCC4)cn23)cc1
IC50 (MV4-11 [13]): 560 nM
IC50 (HCT-116): 4490 nM

Cc1nnc2ccc(-c3nc4cnc(N5CCOCC5)cn4c3Nc3cccc(F)c3)cn12
IC50 (MV4-11 [13]): 870 nM
